Source: patent US20180353403A1, “SKIN-WHITENING COSMETIC COMPOSITION CONTAINING ROSEMARY-DERIVED VERBENONE AS ACTIVE INGREDIENT” (Jeju National University Industry-Academic Cooperation …, priority 2014, published 2018)

Experiments:
mushroom tyrosinase = test: Mushroom tyrosinase inhibition assay; assay type: biochemical
Procedure: 60 μl of a 1 M phosphate buffer (pH 6.8), 10 μl of a sample solution, and 20 μl of 500 U/ml mushroom tyrosinase were sequentially added, and then incubated at room temperature for 5 minutes. After incubation, 60 μl of an aqueous solution containing 1 mM L-tyrosine was added to initiate a reaction. The reaction was performed at 37° C. for 30 minutes, and absorbance was measured at 490 nm. Mushroom tyrosinase inhibition activity was calculated by the following equation.
Mushroom tyrosinase inhibition activity (%)=(B−A)/A×100
(§1) A: OD490 value of treated group
B: OD490 value of blank control

[1] = system: TRP-1, TRP-2, tyrosinase and MITF; test: Western blot of melanogenesis-related proteins in B16F10 cells; assay type: cell-based, mouse
Procedure: After 24 hours, the cells were treated with verbenone at concentrations of 0.625, 1.25, and 2.5 mM, respectively, followed by culturing for 72 hours. The cultured cells were harvested and washed three times with PBS. Then, to lyse the cells, 500 μl of a lysis buffer was added to the cells and the cells were sonicated, followed by incubation for 30 minutes. After cell lysis, centrifugation was performed at 12,000 rpm and 4° C. for 30 minutes to obtain a supernatant. Protein concentration was quantified using bovine serum albumin (BSA) as a standard. Equivalent amounts of the denatured lysates were loaded onto a 12% sodium dodecyl sulfate-polyacrylamide gel, and electrophoresis was performed at 45 mA to separate proteins. After sodium dodecyl sulfate-polyacrylamide gel electrophoresis (SDS-PAGE), the separated proteins present in the gel were transferred onto a membrane at 150 V for 80 minutes. Then, blocking of the membrane was performed for overnight using TTBS (TBS+0.1% Tween 20) solution containing 5% skim milk. Primary antibodies against melanogenesis-related proteins and actin were prepared in a ratio of 1:1,000, and a primary antibody reaction was performed at room temperature for 3 hours. Anti-rabbit IgG and anti-mouse IgG were used as secondary antibodies and diluted 1:5,000. A secondary antibody reaction was performed at room temperature for 1 hour. […]

B 16F10 melanoma cells = test: Measurement of melanin content in B16F10 cells; assay type: cell-based, mouse
Procedure: B 16F10 melanoma cells, obtained from mice, were used as melanin-producing cells. The cultured B 16F10 cells were treated with […] α-melanocyte-stimulating hormone (α-MSH) (a control group). After 1 day, 2.5, 1.25, 0.625 mM verbenone and 2 mM arbutin (a positive control group) were added to the cells, the cells were cultured for 1 day and 2 days, respectively (experimental groups). The cultured cells were washed twice with PBS and harvested by centrifugation at 1500 rpm for 5 minutes. 300 ill of 1 N NaOH containing 10% DMSO was added to the cell pellet and then incubated at 80° C. for 1 hour to dissolve melanin. Melanin content was calculated by the following equation.
Melanin content (%)=A/B×100
as §1
B: OD490 value of non-treated group

[2] = system: tyrosinase in B16F10 cells; test: Tyrosinase inhibition activity in B16F10 cells; assay type: cell-based, mouse; conditions: α-MSH for one day, then 0.625, 1.25 and 2.5 mM, measured after 24 and 48 hours (FIG. 3)
Procedure: Cultured cells were harvested by adding […]. After harvesting, 500 μl of a cell lysis buffer (10 mM sodium phosphate buffer containing 1% Triton X-100 and 0.1 mM PMSF) was added to the harvested cells. To lyse the cells, sonication was performed on the cells and subsequently the cells were incubated on ice for 30 minutes. The lysed cells were centrifuged at 13000 rpm for 30 minutes, and the obtained cell lysate was used to measure tyrosinase activity.
To evaluate the inhibitory efficacy of verbenone against tyrosinase in B16F10 mouse melanoma cells, B16F10 cells were treated with α-MSH for one day to increase tyrosinase. Then, the cells were treated with verbenone at concentrations of 0.625, 1.25 and 2.5 mM, respectively, and tyrosinase activity was measured after 24 and 48 hours, respectively.

Row | Compound | mushroom tyrosinase inhibition activity (mushroom tyrosinase; kojic acid control at 200, 400 or 800 μM (FIG. 2)) | mushroom tyrosinase inhibition activity (mushroom tyrosinase; 2.5 and 5 mM verbenone (FIG. 2)) | expression levels of the melanogenesis-related proteins ([1]; 20 nM α-MSH for 24 hours, then 0.625, 1.25, 2.5 mM, western blotting (FIG. 6A)) | expression levels of melanogenesis-related proteins TRP-1, TRP-2, tyrosinase and MITF ([1]; without α-MSH, 0.625, 1.25, 2.5 mM, 72 hours, western blotting (FIG. 6B)) | color of the cell pellet (B 16F10 melanoma cells; 20 nM α-MSH + 0.625, 1.25, 2.5 mM verbenone (FIG. 5)) | change in melanin content in B 16F10 cells (B 16F10 melanoma cells; screen of six rosemary components, various concentrations, 72 hours, 490 nm, compared to arbutin-treated cells (FIG. 1)) | melanin content in B16F10 cells (B 16F10 melanoma cells; α-MSH 24 hours, then 0.625, 1.25 and 2.5 mM, measured after 24 and 48 hours (FIG. 4)) | tyrosinase activity in B16F10 cells [2]
1 | O=c1cc(CO)occ1O [kojic acid, reference compound] | observed in a concentration-dependent manner |  |  |  |  |  |  | 
2 | CC1=CC(=O)[C@@H]2C[C@H]1C2(C)C [verbenone] |  | no inhibitory effect was observed | reduced in the verbenone-treated group in a concentration-dependent manner | decreased by verbenone in a concentration-dependent manner | weakened by verbenone in a concentration-dependent manner | most significantly decreased | reduced by verbenone in B16F10 cells in a concentration-dependent manner | inhibited tyrosinase in B16F10 cells
